Measurements reported in article PMC8172577, “A Novel Antimicrobial Peptides From Pine Needles of Pinus densiflora Sieb. et Zucc. Against Foodborne Bacteria” (Frontiers in Microbiology, 2021).
Values after ≈ are worked out from the molar mass of the structure shown. Read-outs that look alike come from different tables or passages of the source. Where no end group is shown, it is not given here.

Key:
Format in all cases: cell-based
[1] = test system: Listeria monocytogenes KCTC3710; conditions: minimal concentration of peptide to inhibit microbial growth; 5 × 10^5 CFU/ml, 18 h at 37°C, OD 600 nm
Procedure: (§1) For antimicrobial assays, Escherichia coli ATCC 25922, Pseudomonas aeruginosa ATCC 15692, Staphylococcus aureus ATCC 25923, and Staphylococcus epidermidis ATCC 12228 were obtained from the American Type Culture Collection (Manassas, VA, United States). Salmonella typhimurium KCTC 1926 and Listeria monocytogenes KCTC 3710 were obtained from the Korean Collection for Type Cultures (Jeollabuk-do, Korea).
(§2) Minimum inhibitory concentrations (MICs) of purified PN peptides were assayed according to the Clinical and Laboratory Standards Institute recommendations ([Wiegand et al., 2008]). Briefly, bacterial suspension (5 × 10^5 CFU/ml), obtained by diluting an exponential growth phase culture, was then added into the 96-well plates containing 2-fold serial dilutions of each fraction, the plates were incubated for 18 h at 37°C. MICs of PN peptides were measured in optical density at 600 nm using Versamax™ ELISA Microplate Reader (Molecular Devices, Sunnyvale, CA, United States). PBS, culture media, and melittin were used as growth and growth inhibition controls. The MIC was defined as the lowest concentration of PN peptide that was able to inhibit microbial growth.

[2] = test system: Salmonella typhimurium KCTC1926; conditions: minimal concentration of peptide to inhibit microbial growth; 5 × 10^5 CFU/ml, 18 h at 37°C, OD 600 nm
Procedure: as §1, §2

[3] = test system: mouse red blood cells (mRBCs); test: Hemolytic activity; conditions: 60 min at 37°C
Procedure: Hemolysis was determined using the mouse red blood cells (mRBCs). Fresh mRBCs were collected in PBS and washed three times with PBS (final mRBC concentration, 8% v/v). […] Hemolytic activity was monitored at an absorbance (A) of 414 nm and calculated as a positive control [0.1% Triton X-100 (Atriton)] and negative control [PBS (Ablank)]. The resulting values of cells that underwent hemolysis were calculated according to equation ([Park et al., 2008]):
(1) Hemolysis=[(Asample−Ablank)/(Atriton−Ablank)]×100%

[4] = test system: RAW264.7 (mouse macrophages) cells; test: Cytotoxicity, MTT assay, RAW264.7; conditions: 12.5 μg/ml, 24 h
Procedure: (§3) The cytotoxic effect of PN peptides was assessed against HaCaT (human keratinocytes) and RAW264.7 (mouse macrophages) cells cultured in 96-well plates at a density of 2 × 10^4 cells/well in Dulbecco’s modified Eagle medium (DMEM) containing 10% fetal bovine serum. MTT [3-(4,5-dimethylthiazol-2-yl)-2,5-diphenyltetrazolium bromide] assays were used to evaluate cytotoxicity. PN peptides (0–200 μg/ml) were added with the cells for 24 h at 37°C. Subsequently, MTT (0.5 mg/ml) was added to each well and incubated for 4 h at 37°C After incubation, formazan crystals produced was dissolved in dimethyl sulfoxide, and the absorbance at 570 nm was measured and cytotoxicity was determined as a percentage of 100% cytotoxic control (0.1% Triton X-100; [Park et al., 2008]). Melittin was used as the control (reference) peptide.

[5] = test system: HaCaT (human keratinocytes) cells; test: Cytotoxicity, MTT assay, HaCaT
Procedure: as §3

[6] = test system: Escherichia coli ATCC25922; conditions: minimal concentration of peptide to inhibit microbial growth; 5 × 10^5 CFU/ml, 18 h at 37°C, OD 600 nm
Procedure: as §1, §2

[7] = test system: Staphylococcus aureus ATCC25923; conditions: for Increased in MIC (fold): compared to the soluble extract
Procedure: as §1, §2

[8] = minimal concentration of peptide to inhibit microbial growth, 5 × 10^5 CFU/ml, 18 h at 37°C, OD 600 nm

Compound | MIC [1] | MIC [2] | hemolysis at the lowest concentration ([3]; 3 μg/ml, 8% v/v mRBCs) | lysis (cytotoxicity) [4] | lysis (cytotoxicity) ([5]; 12.5 μg/ml, 24 h) | MIC [6] | MIC [7, 8] | hemolysis ([3]; 200 μg/ml, 8% v/v mRBCs in PBS, A414, vs 0.1% Triton X-100, n = 3) | cytotoxicity ([5]; 200 μg/ml, 24 h at 37°C, vs 0.1% Triton X-100, n = 3) | Increased in MIC (fold) ([7]; after First C18 RP-HPLC) | Increased in MIC (fold) ([7]; after Second C18 RP-HPLC) | MIC ([7]; fraction after First C18 RP-HPLC, S. aureus ATCC25923) | MIC ([7]; fraction after Second C18 RP-HPLC, S. aureus ATCC25923)
CC[C@H](C)[C@H](NC(=O)CN)C(=O)NCC(=O)N[C@@H](C)C(=O)N[C@H](C(=O)N[C@@H](CC(C)C)C(=O)N[C@@H](CCCCN)C(=O)N[C@H](C(=O)N[C@@H](CC(C)C)C(=O)N[C@H](C(=O)N[C@H](C(=O)NCC(=O)N[C@@H](CC(C)C)C(=O)N1CCC[C@H]1C(=O)N[C@@H](C)C(=O)N[C@@H](CC(C)C)C(=O)N[C@H](C(=O)N[C@@H](CO)C(=O)N[C@@H](Cc1c[nH]c2ccccc12)C(=O)N[C@H](C(=O)N[C@@H](CCCCN)C(=O)N[C@@H](CCCNC(=N)N)C(=O)N[C@@H](CCCCN)C(=O)N[C@@H](CCCNC(=N)N)C(=O)N[C@@H](CCC(N)=O)C(=O)N[C@@H](CCC(N)=O)C(N)=O)[C@@H](C)CC)[C@@H](C)CC)[C@@H](C)O)[C@@H](C)O)C(C)C)C(C)C [Melittin, reference compound] | 4 µg/mL (≈ 1.41 µM) | 2 µg/mL (≈ 0.703 µM) | induced hemolysis | 100% | 100% |  |  |  |  |  |  |  | 
FKFLARTGKFL [PN5] | 32 µg/mL | 64 µg/mL |  |  |  | 64 µg/mL | 32 µg/mL | approximately 5% | 19% |  |  |  | 
FKFLARTGKFL [PN-#5, peptide purified from pine needles of Pinus densiflora by RP-HPLC, peak 5] | 32 µg/mL | 64 µg/mL |  |  |  | 64 µg/mL | 32 µg/mL |  |  | 12.5 fold | 234.4 fold | 600 µg/mL | 32 µg/mL
FKFLARTGKFL-NH2 [PN5-NH2] | 32 µg/mL | 32 µg/mL |  |  |  | 64 µg/mL | 16 µg/mL |  |  |  |  |  | 
